Key:
[1] = system: corticospinal tract (CST) fibers; design: species or system Balb-c female mice; conditions: mouse, in vivo
[2] = system: primary retinal neurons; assay: Neurite growth of primary retinal neurons on complex inhibitory substrates (CSPG, myelin); format: cell-based, rats; conditions: plated on myelin or CSPG; 48 hours; FIG. 8
[3] = system: hindlimb motor function; assay: Behavioral recovery after SCI, modified BBB locomotor rating scale; format: in vivo, mice
Experimental: Since a toe clearance phase cannot be evaluated in recuperating mice, we modified the rating to a 17 point scale. Behavioral recovery was assessed for one month after SCI in an open field environment by the BBB method (Basso et al., 1995). […] Thus, scale points 16, 17 and 18 were removed from the scale. Mice raise their tail early in their recovery, and score 19 for tail up position was removed, leaving a 17 point total score. The mouse modified BBB score was as follows: [0] no observable hindlimb (HL) movement; […] […] In the late phase of recovery, the BBB score was determined from sequences of 4 steps or more from digitized videos projected on a computer screen at ¼ speed.

## C[C@@H](N)[C@H]1CC[C@H](C(=O)Nc2ccncc2)CC1 [Y27632, (+)-Trans-4-(1-aminoethyl)-1-(4-pyridycarbamoyl)-cyclohexane]
[1]
  distance of the longest axon from the lesion site: up to 3 mm
  sprouting of transected CST axons: regenerative sprouting into the dorsal white matter and toward the lesion site
[2]
  length of neurites compared to untreated cells: significantly increased the length of neurites
[3]; 1 month period of observation
  locomotor recovery over 1 month: exhibited hindlimb-forelimb coordination
[3]; 24 hours, control mice paraplegic, FIG. 10
  locomotor recovery at 24 hours after surgery: already walking with weight support
